Measured values reported in ChEMBL document CHEMBL1201862, “PubChem BioAssay data set” (2004).
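Growth conditions: 96-well plates. Treatment: test compound, 48 hours, 5 concentrations. Analysis: linear interpolation between bracketing concentrations; unreached endpoints set to highest concentration. Abbreviation: GI50, concentration required for 50% inhibition of growth.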 Calls of active or inactive are those of the source. Rule as the data show it: active = GI50 up to about 1.1 µM and inactive = higher.

Tests used:
Assay in all cases: DTP human tumour cell line panel, 48 h
786-0 = system: 786-0
A498 = system: A498
A549 = system: A549
BT-549 = system: BT-549
CAKI-1 = system: CAKI-1
CCRF-CEM = system: CCRF-CEM
COLO 205 = system: COLO 205
DU-145 = system: DU-145
EKVX = system: EKVX
HCC 2998 = system: HCC 2998
HCT-116 = system: HCT-116
HCT-15 = system: HCT-15
HL-60 = system: HL-60
HOP-62 = system: HOP-62
HOP-92 = system: HOP-92
HT-29 = system: HT-29
IGROV-1 = system: IGROV-1
K562 = system: K562
KM12 = system: KM12
LOX IMVI = system: LOX IMVI
M14 = system: M14
MCF7 = system: MCF7
MDA-MB-231 = system: MDA-MB-231
MDA-MB-435 = system: MDA-MB-435
MDA-N = system: MDA-N
MOLT-4 = system: MOLT-4
Malme-3M = system: Malme-3M
NCI-H226 = system: NCI-H226
NCI-H23 = system: NCI-H23
NCI/ADR-RES = system: NCI/ADR-RES
OVCAR-3 = system: OVCAR-3
OVCAR-4 = system: OVCAR-4
OVCAR-5 = system: OVCAR-5
OVCAR-8 = system: OVCAR-8
PC-3 = system: PC-3
RPMI-8226 = system: RPMI-8226
RXF 393 = system: RXF 393
SF-268 = system: SF-268
SF-295 = system: SF-295
SF-539 = system: SF-539
SK-MEL-28 = system: SK-MEL-28
SK-MEL-2 = system: SK-MEL-2
SK-MEL-5 = system: SK-MEL-5
SK-OV-3 = system: SK-OV-3
SN12C = system: SN12C
SNB-75 = system: SNB-75
SW-620 = system: SW-620
T47D = system: T47D
TK-10 = system: TK-10
U-251 = system: U-251
UACC-257 = system: UACC-257
UACC-62 = system: UACC-62
ACHN = system: ACHN
Hs-578T = system: Hs-578T
NCI-H460 = system: NCI-H460
NCI-H522 = system: NCI-H522
SR = system: SR
UO-31 = system: UO-31

N#CC1(C#N)NC(c2cccnc2)C(C#N)(C#N)NC1c1cccnc1 (stereo unspecified)
GI50 (786-0): > 100 µM (inactive) | GI50 (A498): > 100 µM (inactive) | GI50 (A549): > 100 µM (inactive) | GI50 (BT-549): > 100 µM (inactive) | GI50 (CAKI-1): > 100 µM (inactive) | GI50 (CCRF-CEM): > 100 µM (inactive) | GI50 (COLO 205): > 100 µM (inactive) | GI50 (DU-145): > 100 µM (inactive) | GI50 (EKVX): > 100 µM (inactive) | GI50 (HCC 2998): > 100 µM (inactive) | GI50 (HCT-116): > 100 µM (inactive) | GI50 (HCT-15): > 100 µM | GI50 (HL-60): > 100 µM (inactive) | GI50 (HOP-62): > 100 µM (inactive) | GI50 (HOP-92): > 100 µM (inactive) | GI50 (HT-29): > 100 µM (inactive) | GI50 (IGROV-1): > 100 µM (inactive) | GI50 (K562): > 100 µM (inactive) | GI50 (KM12): > 100 µM (inactive) | GI50 (LOX IMVI): > 100 µM (inactive) | GI50 (M14): > 100 µM (inactive) | GI50 (MCF7): > 100 µM (inactive) | GI50 (MDA-MB-231): > 100 µM (inactive) | GI50 (MDA-MB-435): > 100 µM (inactive) | GI50 (MDA-N): > 100 µM (inactive) | GI50 (MOLT-4): > 100 µM (inactive) | GI50 (Malme-3M): > 100 µM (inactive) | GI50 (NCI-H226): > 100 µM (inactive) | GI50 (NCI-H23): > 100 µM (inactive) | GI50 (NCI/ADR-RES): > 100 µM (inactive) | GI50 (OVCAR-3): > 100 µM (inactive) | GI50 (OVCAR-4): > 100 µM (inactive) | GI50 (OVCAR-5): > 100 µM (inactive) | GI50 (OVCAR-8): > 100 µM (inactive) | GI50 (PC-3): > 100 µM (inactive) | GI50 (RPMI-8226): > 100 µM (inactive) | GI50 (RXF 393): 28.1 µM (inactive) | GI50 (SF-268): > 100 µM (inactive) | GI50 (SF-295): > 100 µM (inactive) | GI50 (SF-539): > 100 µM (inactive) | GI50 (SK-MEL-28): > 100 µM (inactive) | GI50 (SK-MEL-2): > 100 µM (inactive) | GI50 (SK-MEL-5): > 100 µM (inactive) | GI50 (SK-OV-3): > 100 µM (inactive) | GI50 (SN12C): > 100 µM (inactive) | GI50 (SNB-75): 47.9 µM (inactive) | GI50 (SW-620): > 100 µM (inactive) | GI50 (T47D): > 100 µM (inactive) | GI50 (TK-10): > 100 µM (inactive) | GI50 (U-251): > 100 µM (inactive) | GI50 (UACC-257): > 100 µM (inactive) | GI50 (UACC-62): > 100 µM (inactive)

COC(=O)C1(Cc2ccccc2)Cc2cc3c(cc2C1O)CCC3 (stereo unspecified)
GI50 (786-0): 13.6 µM (inactive) | GI50 (A498): 19.7 µM (inactive) | GI50 (A549): 24 µM (inactive) | GI50 (ACHN): 17.1 µM (inactive) | GI50 (BT-549): 15.5 µM (inactive) | GI50 (CAKI-1): 11.6 µM (inactive) | GI50 (CCRF-CEM): 16.1 µM (inactive) | GI50 (COLO 205): 21.3 µM (inactive) | GI50 (DU-145): 15.2 µM (inactive) | GI50 (EKVX): 22.9 µM (inactive) | GI50 (HCC 2998): 24.9 µM (inactive) | GI50 (HCT-116): 17.9 µM (inactive) | GI50 (HCT-15): 30.5 µM | GI50 (HL-60): 24.5 µM (inactive) | GI50 (HOP-62): 19.3 µM (inactive) | GI50 (HOP-92): 16 µM (inactive) | GI50 (HT-29): 13.8 µM (inactive) | GI50 (Hs-578T): 13.8 µM (inactive) | GI50 (IGROV-1): 15.8 µM (inactive) | GI50 (K562): 19.7 µM (inactive) | GI50 (KM12): 21.3 µM (inactive) | GI50 (LOX IMVI): 19.1 µM (inactive) | GI50 (MDA-MB-231): 18.3 µM (inactive) | GI50 (MDA-MB-435): 16.3 µM (inactive) | GI50 (MDA-N): 17.5 µM (inactive) | GI50 (MOLT-4): 17.5 µM (inactive) | GI50 (Malme-3M): 14 µM (inactive) | GI50 (NCI-H226): 19.5 µM (inactive) | GI50 (NCI-H23): 15 µM (inactive) | GI50 (NCI-H460): 30.1 µM (inactive) | GI50 (NCI-H522): 17.4 µM (inactive) | GI50 (NCI/ADR-RES): 18.4 µM (inactive) | GI50 (OVCAR-3): 16.4 µM (inactive) | GI50 (OVCAR-4): 15 µM (inactive) | GI50 (OVCAR-5): 13.6 µM (inactive) | GI50 (OVCAR-8): 25.6 µM (inactive) | GI50 (PC-3): 19 µM (inactive) | GI50 (RPMI-8226): 22.7 µM (inactive) | GI50 (RXF 393): 15 µM (inactive) | GI50 (SF-268): 30.3 µM (inactive) | GI50 (SF-295): 27 µM (inactive) | GI50 (SF-539): 18.2 µM (inactive) | GI50 (SK-MEL-28): 16.1 µM (inactive) | GI50 (SK-MEL-5): 15.9 µM (inactive) | GI50 (SK-OV-3): 17 µM (inactive) | GI50 (SN12C): 17.7 µM (inactive) | GI50 (SNB-75): 34.8 µM (inactive) | GI50 (SR): 26.7 µM (inactive) | GI50 (SW-620): 13.2 µM (inactive) | GI50 (T47D): 28.5 µM (inactive) | GI50 (TK-10): 25.9 µM (inactive) | GI50 (UACC-257): 18.2 µM (inactive) | GI50 (UACC-62): 16.9 µM (inactive) | GI50 (UO-31): > 10 µM (inactive)
